From PubChem BioAssay (NCI)
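96-well plates; 48 h exposure; 5 concentrations. Endpoints by linear interpolation between flanking doses. Not reached: highest tested concentration assigned. GI50: concentration for 50% inhibition of growth. TGI: concentration producing complete growth inhibition.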

What was measured:
Test in all cases: inhibition of tumour cell growth, NCI panel, 48 h
UACC-62 melanoma = tested on: UACC-62 melanoma
SF-539 CNS = tested on: SF-539 CNS
ACHN renal = tested on: ACHN renal
U251 CNS = tested on: U251 CNS
A549 NSCLC = tested on: A549 NSCLC
HOP-92 NSCLC = tested on: HOP-92 NSCLC
SR leukemia = tested on: SR leukemia
IGROV1 ovarian = tested on: IGROV1 ovarian
OVCAR-5 ovarian = tested on: OVCAR-5 ovarian
MOLT-4 leukemia = tested on: MOLT-4 leukemia
SK-MEL-2 melanoma = tested on: SK-MEL-2 melanoma
KM12 colon = tested on: KM12 colon
K-562 leukemia = tested on: K-562 leukemia
NCI-H460 lung = tested on: NCI-H460 lung
OVCAR-8 ovarian = tested on: OVCAR-8 ovarian
KM20L2 colon = tested on: KM20L2 colon
DLD-1 colon = tested on: DLD-1 colon
SK-MEL-28 melanoma = tested on: SK-MEL-28 melanoma
SF-268 CNS = tested on: SF-268 CNS
NCI-H522 lung = tested on: NCI-H522 lung
MALME-3M melanoma = tested on: MALME-3M melanoma
SNB-19 CNS = tested on: SNB-19 CNS
SNB-78 CNS = tested on: SNB-78 CNS
TK-10 renal = tested on: TK-10 renal
HT29 colon = tested on: HT29 colon
SK-OV-3 ovarian = tested on: SK-OV-3 ovarian
DMS 114 small cell lung = tested on: DMS 114 small cell lung
NCI-H226 lung = tested on: NCI-H226 lung
LOX IMVI melanoma = tested on: LOX IMVI melanoma
HCT-116 colon = tested on: HCT-116 colon
LXFL 529 NSCLC = tested on: LXFL 529 NSCLC
CCRF-CEM leukemia = tested on: CCRF-CEM leukemia
HL-60(TB) leukemia = tested on: HL-60(TB) leukemia
OVCAR-3 ovarian = tested on: OVCAR-3 ovarian
M14 melanoma = tested on: M14 melanoma
HCC-2998 colon = tested on: HCC-2998 colon
SK-MEL-5 melanoma = tested on: SK-MEL-5 melanoma
RXF 393 renal = tested on: RXF 393 renal
OVCAR-4 ovarian = tested on: OVCAR-4 ovarian
M19-MEL melanoma = tested on: M19-MEL melanoma
HOP-62 NSCLC = tested on: HOP-62 NSCLC
UO-31 renal = tested on: UO-31 renal
DMS 273 small cell lung = tested on: DMS 273 small cell lung
COLO 205 colon = tested on: COLO 205 colon
SW-620 colon = tested on: SW-620 colon
XF 498 CNS = tested on: XF 498 CNS
HCT-15 colon = tested on: HCT-15 colon
SN12C renal = tested on: SN12C renal
RPMI-8226 leukemia = tested on: RPMI-8226 leukemia
786-0 renal = tested on: 786-0 renal
NCI-H23 lung = tested on: NCI-H23 lung
SF-295 CNS = tested on: SF-295 CNS
EKVX NSCLC = tested on: EKVX NSCLC
SNB-75 CNS = tested on: SNB-75 CNS
CAKI-1 renal = tested on: CAKI-1 renal
UACC-257 melanoma = tested on: UACC-257 melanoma
A498 renal = tested on: A498 renal

For `Cc1cc2c(cc1O)[nH]c1cc3c(cc12)C=CC(C)(C)O3`, the GI50 (UACC-62 melanoma) was 6.75 µM, the TGI (UACC-62 melanoma) was over 25 µM and the GI50 (SF-539 CNS) was 4.08 µM. The TGI (SF-539 CNS) was 9.96 µM, the GI50 (ACHN renal) was 9.3 µM and the TGI (ACHN renal) was over 25 µM. It also gave a GI50 (U251 CNS) of 6.06 µM, a TGI (U251 CNS) of 14.3 µM and a GI50 (A549 NSCLC) of 6.42 µM. It also gave a TGI (A549 NSCLC) of 21.6 µM, a GI50 (HOP-92 NSCLC) of 9.85 µM and a TGI (HOP-92 NSCLC) of over 25 µM. It also gave a GI50 (SR leukemia) of 6.39 µM, a TGI (SR leukemia) of 24.9 µM and a GI50 (IGROV1 ovarian) of 22.9 µM. It also gave a TGI (IGROV1 ovarian) of over 25 µM, a TGI (OVCAR-5 ovarian) of over 25 µM and a GI50 (MOLT-4 leukemia) of 3.23 nM. For the same compound, the TGI (MOLT-4 leukemia) was over 25 µM, the TGI (SK-MEL-2 melanoma) was over 25 µM and the GI50 (KM12 colon) was 5.26 µM. The TGI (KM12 colon) was 11.9 µM, the TGI (K-562 leukemia) was over 25 µM and the GI50 (NCI-H460 lung) was 5.36 µM. The TGI (NCI-H460 lung) was 12.4 µM, the TGI (OVCAR-8 ovarian) was 9.41 µM and the GI50 (KM20L2 colon) was 9.35 µM. It also gave a TGI (KM20L2 colon) of over 25 µM, a GI50 (DLD-1 colon) of 12.7 µM and a TGI (DLD-1 colon) of over 25 µM. It also gave a GI50 (SK-MEL-28 melanoma) of 14.5 µM, a TGI (SK-MEL-28 melanoma) of over 25 µM and a GI50 (SF-268 CNS) of 6.69 µM. The TGI (SF-268 CNS) was over 25 µM, the GI50 (NCI-H522 lung) was 8.39 µM and the TGI (NCI-H522 lung) was over 25 µM. For the same compound, the GI50 (MALME-3M melanoma) was 10.1 µM, the TGI (MALME-3M melanoma) was over 25 µM and the TGI (SNB-19 CNS) was over 25 µM. The TGI (SNB-78 CNS) was over 25 µM, the TGI (TK-10 renal) was over 25 µM and the GI50 (HT29 colon) was 11.8 µM. For the same compound, the TGI (HT29 colon) was over 25 µM, the TGI (SK-OV-3 ovarian) was over 25 µM and the TGI (DMS 114 small cell lung) was over 25 µM. It also gave a GI50 (NCI-H226 lung) of 18.9 µM, a TGI (NCI-H226 lung) of over 25 µM and a GI50 (LOX IMVI melanoma) of 3.95 µM. It also gave a TGI (LOX IMVI melanoma) of 7.41 µM, a GI50 (HCT-116 colon) of 12.8 µM and a TGI (HCT-116 colon) of over 25 µM. For the same compound, the GI50 (LXFL 529 NSCLC) was 9.31 µM, the TGI (LXFL 529 NSCLC) was over 25 µM and the GI50 (CCRF-CEM leukemia) was 19.8 µM. It also gave a TGI (CCRF-CEM leukemia) of over 25 µM, a GI50 (HL-60(TB) leukemia) of 6.98 µM and a TGI (HL-60(TB) leukemia) of over 25 µM. For the same compound, the TGI (OVCAR-3 ovarian) was 22.6 µM, the GI50 (M14 melanoma) was 6.07 µM and the TGI (M14 melanoma) was 16.9 µM. The GI50 (HCC-2998 colon) was 6.73 µM, the TGI (HCC-2998 colon) was 14.5 µM and the GI50 (SK-MEL-5 melanoma) was 17.5 µM. The TGI (SK-MEL-5 melanoma) was over 25 µM, the GI50 (RXF 393 renal) was 4.93 µM and the TGI (RXF 393 renal) was 11.5 µM. For the same compound, the TGI (OVCAR-4 ovarian) was over 25 µM, the GI50 (M19-MEL melanoma) was 19.6 µM and the TGI (M19-MEL melanoma) was over 25 µM. The GI50 (HOP-62 NSCLC) was 7.95 µM, the TGI (HOP-62 NSCLC) was 24.4 µM and the GI50 (UO-31 renal) was 11.4 µM. For the same compound, the TGI (UO-31 renal) was over 25 µM, the GI50 (DMS 273 small cell lung) was 5.04 µM and the TGI (DMS 273 small cell lung) was 12.2 µM. For the same compound, the TGI (COLO 205 colon) was over 25 µM, the GI50 (SW-620 colon) was 7.64 µM and the TGI (SW-620 colon) was over 25 µM. It also gave a TGI (XF 498 CNS) of over 25 µM, a GI50 (HCT-15 colon) of 8.73 µM and a TGI (HCT-15 colon) of over 25 µM. For the same compound, the GI50 (SN12C renal) was 6.32 µM, the TGI (SN12C renal) was 18.9 µM and the TGI (RPMI-8226 leukemia) was over 25 µM.
With `CCc1cccc(C(C)CC)c1NC(=O)CC1C(=O)Nc2ccccc2S1(=O)=O` (centres undefined) the TGI (786-0 renal) was 33.6 µM, the TGI (UACC-62 melanoma) was over 100 µM and the TGI (SF-539 CNS) was 52.1 µM. The TGI (ACHN renal) was over 100 µM, the TGI (U251 CNS) was over 100 µM and the TGI (A549 NSCLC) was 70 µM. The TGI (IGROV1 ovarian) was over 100 µM, the TGI (OVCAR-5 ovarian) was over 100 µM and the TGI (MOLT-4 leukemia) was 41.5 µM. The TGI (SK-MEL-2 melanoma) was over 100 µM, the TGI (KM12 colon) was 40.5 µM and the TGI (K-562 leukemia) was 28.5 µM. For the same compound, the TGI (NCI-H460 lung) was over 100 µM, the TGI (OVCAR-8 ovarian) was 15.9 µM and the TGI (KM20L2 colon) was over 100 µM. It also gave a TGI (DLD-1 colon) of 33.2 µM, a TGI (SK-MEL-28 melanoma) of over 100 µM and a TGI (NCI-H23 lung) of 40.1 µM. For the same compound, the TGI (SF-268 CNS) was over 100 µM, the TGI (MALME-3M melanoma) was over 100 µM and the TGI (SF-295 CNS) was over 100 µM. The TGI (SNB-19 CNS) was over 100 µM, the TGI (SNB-78 CNS) was 65.5 µM and the TGI (TK-10 renal) was 84.5 µM. For the same compound, the TGI (HT29 colon) was 47.9 µM, the TGI (SK-OV-3 ovarian) was 99.2 µM and the TGI (DMS 114 small cell lung) was 39.2 µM. It also gave a TGI (LOX IMVI melanoma) of 39.9 µM, a TGI (LXFL 529 NSCLC) of 24.5 µM and a TGI (CCRF-CEM leukemia) of 30.5 µM. For the same compound, the TGI (EKVX NSCLC) was 44.3 µM, the TGI (SNB-75 CNS) was 94.6 µM and the TGI (OVCAR-3 ovarian) was 38.2 µM. The TGI (M14 melanoma) was over 100 µM, the TGI (HCC-2998 colon) was 22.1 µM and the TGI (SK-MEL-5 melanoma) was over 100 µM. The TGI (OVCAR-4 ovarian) was 39.9 µM, the TGI (CAKI-1 renal) was 40.2 µM and the TGI (M19-MEL melanoma) was over 100 µM. It also gave a TGI (HOP-62 NSCLC) of over 100 µM, a TGI (UO-31 renal) of 96.2 µM and a TGI (DMS 273 small cell lung) of 71.3 µM. The TGI (COLO 205 colon) was 44.5 µM, the TGI (UACC-257 melanoma) was over 100 µM and the TGI (SW-620 colon) was 28.7 µM. For the same compound, the TGI (XF 498 CNS) was over 100 µM, the TGI (HCT-15 colon) was 48.7 µM and the TGI (A498 renal) was 72.6 µM. For the same compound, the TGI (SN12C renal) was over 100 µM and the TGI (RPMI-8226 leukemia) was 43.3 µM.
